For the test, the target named is T1, SGBP-A (Bacteroides ovatus, UniProt A7LXT5).
T1 sequence (A7LXT5 28-546): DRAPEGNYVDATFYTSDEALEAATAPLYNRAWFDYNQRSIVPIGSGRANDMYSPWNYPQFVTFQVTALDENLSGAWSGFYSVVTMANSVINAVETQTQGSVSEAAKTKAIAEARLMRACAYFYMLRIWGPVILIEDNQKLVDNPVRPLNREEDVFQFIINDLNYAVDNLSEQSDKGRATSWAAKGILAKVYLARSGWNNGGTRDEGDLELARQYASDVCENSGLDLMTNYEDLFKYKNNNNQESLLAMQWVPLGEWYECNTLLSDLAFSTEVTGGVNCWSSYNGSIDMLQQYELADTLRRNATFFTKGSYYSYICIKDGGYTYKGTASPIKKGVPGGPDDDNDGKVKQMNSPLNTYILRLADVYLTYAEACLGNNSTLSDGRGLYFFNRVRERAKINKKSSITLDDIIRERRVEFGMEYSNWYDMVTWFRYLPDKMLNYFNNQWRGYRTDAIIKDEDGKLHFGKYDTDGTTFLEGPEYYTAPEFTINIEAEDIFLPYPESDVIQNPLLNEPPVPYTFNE
The test can be described thus: ITC. The class given is binding. Conditions: 25 °C, 20 mM HEPES, 100 mM NaCl, pH 7.0; two titrations.

In the case of `OC[C@H]1O[C@@H](O[C@H]2[C@H](O)[C@@H](O)[C@H](O[C@H]3[C@H](O)[C@@H](O)[C@H](O[C@H]4[C@H](O)[C@@H](O)[C@H](O[C@H]5[C@H](O)[C@@H](O)[C@H](O[C@H]6[C@H](O)[C@@H](O)C(O)O[C@@H]6CO)O[C@@H]5CO)O[C@@H]4CO)O[C@@H]3CO)O[C@@H]2CO)[C@H](O)[C@@H](O)[C@@H]1O` (stereo partly shown) [Cellohexaose], the “Ka (M^-1) / SGBP-A” value is given as 568.0 ± 291.0.

(Values after publication PMC4850273 (mBio, 2016).)
